Data published in US5523297A, “Inhibition of excessive phospholipase A2 activity and/or production by non-antimicrobial tetracyclines” (The Research Foundation of State University of New York, priority 1995, dated 1996).
Where two headings read alike, the source gives them in different places.

Tests used:
Assay type in all cases: biochemical
porcine pancreatic PLA2 = target: T1, porcine pancreatic PLA2 (Sus scrofa, UniProt P00592); experiment: Inhibition of porcine pancreatic PLA2, E. coli assay
T1 construct: radiolabelled E. coli membrane hydrolysis assay
T1 sequence (P00592 23-146): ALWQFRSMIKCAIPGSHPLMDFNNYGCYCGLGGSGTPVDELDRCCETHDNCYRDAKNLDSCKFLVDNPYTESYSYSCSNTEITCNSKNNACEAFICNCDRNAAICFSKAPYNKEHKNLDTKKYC
Experimental: (§1) Six different chemically-modified tetracyclines, including CMT-1 (4-dedimethylaminotetracycline), CMT-2 (tetracyclinonitrile), CMT-3 (6-demethyl-6-deoxy-4-dedimethylaminotetracycline), CMT-4 (4-de-dimethylamino-7-chloro-tetracycline), CMT-5 (pyrazole analog) and CMT-6 (4-hydroxy-4-dedimethylaminotetracycline), were examined for their ability to inhibit PLA2 activity in vitro. The sources of PLA2 that were tested included recombinant human PLA2, human pancreatic and porcine pancreatic PLA2 and Naja naja PLA2. […] Various concentrations of CMTs, ranging from 5-100 μg/ml, were preincubated with the different PLA2 enzymes for 30 minutes and the mixture was tested for PLA2 activity using a known E. coli assay method (see Arthritis and Rheumatism, 34 Supp. 9: p. S160 (abst C167)).
(§2) A chemically-modified tetracycline, 4-dedimethylamino-7-dimethylaminotetracycline (CMT-10), was examined for its ability to inhibit PLA2 activity in vitro. The sources of PLA2 that were tested included were recombinant human PLA2 (snpPLA2), human pancreatic and porcine pancreatic PLA2 and Naja naja PLA2. […] Various concentrations of CMT-10, ranging from 5-100 μg/ml, were preincubated with the different PLA2 enzymes for 30 minutes and the mixture was tested for PLA2 activity using a known E. coli assay method (see Arthritis and Rheumatism, 34 Supp. 9: p. S160 (abst C167)).
(§3) In particular, [^14 C]Oleic acid-labelled Escherichia coli (strain K12 C600) were used as the substrate. This substrate has been characterized with respect to phospholipid composition and distribution of radiolabel. Reaction mixtures contained 10 mg bovine serum albumin, 2 mM CaCl2, 2.8×10^8 radiolabelled E. coli and 0.1M Tris-HCl buffer, pH 7.5 in a total volume of 1.5 ml. Reaction mixtures were incubated at 37° C. for 30 min. The reaction was terminated by filtration through a 0.45 μm Millipore filter, thereby retaining unhydrolysed E. coli membranes, and allowing the [^14 C]oleic acid bound to the BSA carrier, released as a result of PLA2 hydrolysis, to pass through the filter. Assays were performed in duplicate and values shown represent the mean of two determinations with a SD<5% of the mean. Assays were performed in substrate excess and enzyme activities were corrected for non-enzymatichydrolysis. One unit of PLA2 activity is defined as the hydrolysis of 56 pmol of phospholipid substrate (representing 1% of total E. coli phospholipid) in 30 min at 37° C.

human pancreatic PLA2 = target: T2, human pancreatic PLA2 (Homo sapiens, UniProt P04054); experiment: Inhibition of human pancreatic PLA2, E. coli assay
T2 construct: radiolabelled E. coli membrane hydrolysis assay
T2 sequence (P04054 23-148): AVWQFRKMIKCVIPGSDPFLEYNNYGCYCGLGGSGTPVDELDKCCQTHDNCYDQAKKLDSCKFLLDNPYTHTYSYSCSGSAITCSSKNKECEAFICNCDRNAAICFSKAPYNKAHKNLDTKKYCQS
Experimental: as §1, §2, §3

[1] = target: T3, recombinant human PLA2 (snpPLA2) (Homo sapiens, UniProt P14555); experiment: Inhibition of recombinant human PLA2, radiolabelled E. coli assay
T3 sequence (P14555 21-144): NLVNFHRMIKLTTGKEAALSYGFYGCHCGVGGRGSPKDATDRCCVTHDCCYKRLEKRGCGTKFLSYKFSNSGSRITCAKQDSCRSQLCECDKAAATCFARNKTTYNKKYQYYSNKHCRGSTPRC
Experimental: as §1, §2, §3

[2] = concentrations of 25 μg/ml or greater
[3] = concentration required to inhibit 50% of PLA2, 30 min preincubation, read-out: IC50 (converted)

Structure (SMILES)	inhibition of porcine pancreatic PLA2 (porcine pancreatic PLA2)	inhibition of human pancreatic PLA2 (human pancreatic PLA2)	PLA2-inhibitory activity [1, 2]	IC50 [1, 3]	other results
CC1(O)c2cccc(O)c2C(=O)C2=C(O)C3(O)C(=O)C(C(N)=O)=C(O)CC3CC21 (centres unmarked) [CMT-1, 4-dedimethylaminotetracycline]	inhibit	inhibit	significant PLA2 -inhibitory activity		IC50 [1]: 92.2 µM
CN(C)C1C(=O)C(C#N)=C(O)C2(O)C(=O)C3=C(O)c4c(O)cccc4C(C)(O)C3CC12 (centres unmarked) [CMT-2, tetracyclinonitrile]					PLA2-inhibitory activity ([1]; even at the highest concentrations tested (range 5-100 μg/ml)): lacked any PLA2 -inhibitory activity
NC(=O)C1=C(O)C2(O)C(=O)C3=C(O)c4c(O)cccc4CC3CC2CC1=O (centres unmarked) [CMT-3, 6-demethyl-6-deoxy-4-dedimethylaminotetracycline]	inhibit	inhibit	significant PLA2 -inhibitory activity		
CC1(O)c2c(Cl)ccc(O)c2C(=O)C2=C(O)C3(O)C(=O)C(C(N)=O)=C(O)CC3CC21 (centres unmarked) [CMT-4, 4-de-dimethylamino-7-chloro-tetracycline]	inhibit	inhibit	significant PLA2 -inhibitory activity	96.4 µM	
CC1(O)c2cccc(O)c2C(=O)C2=C(O)C3(O)C(=O)C(C(N)=O)=C(O)C(O)C3CC21 (centres unmarked) [CMT-6, 4-hydroxy-4-dedimethylaminotetracycline]	inhibit	inhibit	significant PLA2 -inhibitory activity	40.7 µM	
CN(C)c1ccc(O)c2c1C(C)(O)C1CC3CC(O)=C(C(N)=O)C(=O)C3(O)C(O)=C1C2=O (centres unmarked) [CMT-10, 4-dedimethylamino-7-dimethylaminotetracycline]		inhibit	significant PLA2 -inhibitory activity	67.5 µM	inhibition at 30 µg/mL (human pancreatic PLA2; concentration of 30 μg/ml): 66%; inhibition at 5 µg/mL ([1]; CMT-10 5 μg/ml): 4 ± 4%; inhibition at 10 µg/mL ([1]; CMT-10 10 μg/ml): 12 ± 2%; inhibition at 25 µg/mL ([1]; CMT-10 25 μg/ml): 45 ± 1%; inhibition at 50 µg/mL ([1]; CMT-10 50 μg/ml): 75 ± 2%; inhibition at 100 µg/mL ([1]; CMT-10 100 μg/ml): 87 ± 2%; inhibition of PLA2 activity ([1]; final concentration of 5 and 10 μg/ml): did not exhibit substantial inhibition
